Results as given in ChEMBL document CHEMBL3044817, “Antifeedant and mosquitocidal compounds from Delphinium x cultorum cv. Magic fountains flowers” (J Agric Food Chem, 2000).
Active and inactive are the calls of the source. The calls are words filed in the database; no cut-off is given here.

System: Helicoverpa zea
Assay: Antifeedant activity against Helicoverpa zea (corn earworm) at 250 mg/ml at 28 degC day/24 degC night measured after 6 days
Format: functional, organism-based

Which Activity does the source give for `Oc1ccc(C(O)c2ccc(O)cc2)cc1` here?
Its Activity is “inactive”.

`O=C(O)c1ccc(O)cc1` was tested. Which Activity did it give?
The Activity was “inactive”.
